From patent US20190091165A1, “METHOD FOR PREPARING NANOPARTICLE OF ACTIVE INGREDIENT USING LIPID AS LUBRICANT IN MILLING PROCESS” (BIO-SYNECTICS INC., priority 2017, published 2019)

Test: Separate experiment: dissolving and recrystallizing in a solvent (crystal form / salt stability)
Format: physicochemical

SMILES: CNC(=O)c1cc(Oc2ccc(NC(=O)Nc3ccc(Cl)c(C(F)(F)F)c3)cc2)ccn1.Cc1ccc(S(=O)(=O)O)cc1 [Sorafenib tosylate III]
- crystal form and salt stability on recrystallization: crystal form change and partial generation of free base compound by loss of tosylate salt
